How the values were obtained:
Type in all cases: in vivo
[1] = system: Spodoptera littoralis (Egyptian Cotton Leaf Worm); assay: Spodoptera littoralis (Egyptian cotton leaf worm) test on sprayed cotton leaf discs; details: foliar, 72 h, application rate of 200 ppm, L1 larvae, 3 days after infestation, in comparison to untreated samples, read-out: control (mortality, anti-feeding effect, or growth inhibition)
Protocol: Example B8: Spodoptera littoralis (Egyptian Cotton Leaf Worm)
Cotton leaf discs were placed onto agar in 24-well microtiter plates and sprayed with aqueous test solutions prepared from 10′000 ppm DMSO stock solutions. After drying the leaf discs were infested with five L1 larvae. The samples were assessed for mortality, anti-feeding effect, and growth inhibition in comparison to untreated samples 3 days after infestation. Control of Spodoptera littoralis by a test sample is given when at least one of the categories mortality, anti-feedant effect, and growth inhibition is higher than the untreated sample.

[2] = system: Plutella xylostella (Diamond Back Moth); assay: Plutella xylostella (diamond back moth) artificial diet test; details: 120 h, application rate of 200 ppm, L2 larvae, artificial diet treated by pipetting, 5 days after infestation, in comparison to untreated samples, read-out: effect in at least one of the two categories (mortality or growth inhibition)
Protocol: Example B7: Plutella xylostella (Diamond Back Moth)
(§1) 24-well microtiter plates with artificial diet were treated with aqueous test solutions prepared from 10′000 ppm DMSO stock solutions by pipetting. After drying, the plates were infested with L2 larvae (10 to 15 per well). The samples were assessed for mortality and growth inhibition in comparison to untreated samples 5 days after infestation.
(§2) The following compounds gave an effect of at least 80% in at least one of the two categories (mortality or growth inhibition) at an application rate of 200 ppm: P1, P2, P3, P4.

[3] = system: Diabrotica balteata (Corn Root Worm); assay: Diabrotica balteata (corn root worm) test on sprayed maize sprouts; details: 96 h, application rate of 200 ppm, L2 larvae, 4 days after infestation, in comparison to untreated samples, read-out: effect in at least one of the two categories (mortality or growth inhibition)
Protocol: Example B2: Diabrotica balteata (Corn Root Worm)
as §1, with “Maize sprouts placed onto an agar layer in 24-well” for “24-well”, “plates” for “plates with artificial diet”, “spraying.” for “pipetting.”, “(6” for “(10”, “10” for “15”, “4” for “5”
as §2

CCS(=O)(=O)c1cc(-c2cc(F)cc(F)c2)cnc1-n1cc2ncc(C(F)(F)F)cc2n1 [P1, 2-[5-(3,5-difluorophenyl)-3-ethylsulfonyl-2-pyridyl]-6-(trifluoromethyl)pyrazolo[4,3-b]pyridine]
≥ 80%: percent control (mortality, anti-feedant effect or growth inhibition) at 200 ppm [1] | percent effect (mortality or growth inhibition) at 200 ppm [2] | percent effect (mortality or growth inhibition) at 200 ppm [3]

CCS(=O)(=O)c1cc(-c2cccc(F)c2)cnc1-n1cc2ncc(C(F)(F)F)cc2n1 [P2]
≥ 80%: percent control (mortality, anti-feedant effect or growth inhibition) at 200 ppm [1] | percent effect (mortality or growth inhibition) at 200 ppm [2] | percent effect (mortality or growth inhibition) at 200 ppm [3]

CCS(=O)(=O)c1cc(-c2cc(F)cc(F)c2)cnc1-n1cc2ccc(C(F)(F)F)cc2n1 [P3, 2-[5-(3,5-difluorophenyl)-3-ethylsulfonyl-2-pyridyl]-6-(trifluoromethyl)indazole]
≥ 80%: percent control (mortality, anti-feedant effect or growth inhibition) at 200 ppm [1] | percent effect (mortality or growth inhibition) at 200 ppm [2] | percent effect (mortality or growth inhibition) at 200 ppm [3]

CCS(=O)(=O)c1cc(-c2cccc(F)c2)cnc1-n1cc2ccc(C(F)(F)F)cc2n1 [P4]
≥ 80%: percent control (mortality, anti-feedant effect or growth inhibition) at 200 ppm [1] | percent effect (mortality or growth inhibition) at 200 ppm [2] | percent effect (mortality or growth inhibition) at 200 ppm [3]

Reference: US10667518B2, “Pesticidally active heterocyclic derivatives with sulphur containing substituents” (SYNGENTA PARTICIPATIONS AG, priority 2016, dated 2020)
